For twelve compounds, Ki and EC50 results are on record in ChEMBL document CHEMBL1145246, “Lactams as prostanoid receptor ligands. Part 4: 2-Piperidones as selective EP4 receptor agonists” (Bioorg Med Chem Lett, 2005).

Molecules are shown by their SMILES. Bounds are passed on as bounds.

Experiment [1] can be described thus: Binding affinity for prostanoid EP3 receptor.
Experiment [2] is described as follows: Binding affinity for prostanoid EP4 receptor.
The nature of experiment [3]: Binding affinity for prostanoid EP2 receptor.
The target in experiment [4] is Prostaglandin E2 receptor EP4 subtype (Homo sapiens, UniProt P35408). In words: Effective concentration required for prostanoid EP4 receptor activity was determined. In kind it is functional.
Chain of Prostaglandin E2 receptor EP4 subtype (P35408 whole entry): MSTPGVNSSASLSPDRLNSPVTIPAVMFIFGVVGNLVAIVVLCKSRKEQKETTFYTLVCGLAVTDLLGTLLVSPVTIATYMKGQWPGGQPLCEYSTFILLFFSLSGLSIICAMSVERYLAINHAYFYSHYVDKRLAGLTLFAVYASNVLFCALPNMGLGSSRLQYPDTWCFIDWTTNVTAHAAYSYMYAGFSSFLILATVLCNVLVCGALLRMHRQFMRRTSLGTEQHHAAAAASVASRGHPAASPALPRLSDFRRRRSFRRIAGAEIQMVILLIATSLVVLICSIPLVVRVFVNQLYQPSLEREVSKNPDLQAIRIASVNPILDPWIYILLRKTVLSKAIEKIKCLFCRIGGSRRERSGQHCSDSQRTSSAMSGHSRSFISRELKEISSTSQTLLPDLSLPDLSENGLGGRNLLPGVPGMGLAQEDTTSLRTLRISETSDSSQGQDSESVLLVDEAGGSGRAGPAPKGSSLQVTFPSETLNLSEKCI
Experiment [5] in a line: Binding affinity for Prostanoid EP2 receptor.

With `Cc1cc(Cl)ccc1-c1cccc([C@H](O)CC[C@H]2CCCC(=O)N2CCSCCCC(=O)O)c1`, the results for the inhibition constant Ki in experiment [1], in experiment [2] and in experiment [3] were > 10000 nM, 4.8 nM and 1600 nM, respectively. In experiment [4], this compound showed a 50% effective concentration (EC50) of 6.1 nM.
On the same counts, the results for `O=C(O)CCCSCCN1C(=O)CCC[C@@H]1CC[C@@H](O)c1ccc(C(F)(F)F)o1` are > 10000 nM, 105 nM, > 10000 nM and 630 nM.
Regarding `O=C(O)CCCSCCN1C(=O)CCC[C@@H]1/C=C/[C@@H](O)CCC1CC1`, the figures for the inhibitory constant (Ki) in experiment [1], in experiment [2] and in experiment [5] were > 10000 nM, 21 nM and > 10000 nM, respectively. Moreover, the EC50 in experiment [4] was 190 nM.
As to `CCCCC(C)(C)C(O)/C=C/[C@H]1CCCC(=O)N1CCSCCCC(=O)O` (some centres not stated), the Ki in experiment [2] is 86 nM; in experiment [3] it was > 10000 nM. The compound also had an EC50 in experiment [4] of 290 nM.
For `Cc1cc(O)ccc1-c1cccc([C@@H](O)CC[C@H]2CCCC(=O)N2CCCCCCC(=O)O)c1`, the figures for the inhibition constant Ki in experiment [1], in experiment [2] and in experiment [3] were > 10000 nM, 25 nM and > 10000 nM, respectively. For the same compound, the EC50 in experiment [4] turned out to be 110 nM.
On to `O=C(O)CCCSCCN1C(=O)CCC[C@@H]1/C=C/[C@@H](O)CCC1CCC1`, for which the results for the inhibition constant (Ki) in experiment [1], in experiment [2] and in experiment [3] were > 10000 nM, 7.3 nM and 3800 nM, respectively. This compound came in with a half-maximal effective concentration (EC50) in experiment [4] of 34 nM.
On the same counts, the results for `O=C(O)CCCSCCN1C(=O)CCC[C@@H]1/C=C/C(O)C1(c2ccccc2)CC1` (some centres not stated) are > 10000 nM, 17 nM, > 10000 nM and 260 nM.
In the same order, the values of `COCc1cccc(C[C@H](O)/C=C/[C@H]2CCCC(=O)N2CCSCCCC(=O)O)c1` are > 10000 nM, 22 nM, > 10000 nM and 44 nM.
Regarding `CC(C)c1cc(C[C@H](O)/C=C/[C@H]2CCCC(=O)N2CCCCCCC(=O)O)ccc1O`, the Ki in experiment [2] was 130 nM; in experiment [3] it was > 10000 nM. The same compound displayed an EC50 in experiment [4] of 1730 nM.
In the case of `Cc1cc(C[C@H](O)/C=C/[C@H]2CCCC(=O)N2CCCCCCC(=O)O)ccc1O`, the Ki was > 10000 nM in experiment [1], 7.4 nM in experiment [2] and > 10000 nM in experiment [3]. Moreover, in experiment [4], the 50% effective concentration (EC50) came to 280 nM.
In experiment [4], `Cc1cc(O)ccc1-c1cccc(C(=O)CC[C@H]2CCCC(=O)N2CCCCCCC(=O)O)c1` came in with an EC50 of 21000 nM.
Turning to `COCc1cccc(C[C@H](O)/C=C/[C@H]2CCCC(=O)N2CCCCCCC(=O)O)c1`, the Ki in experiment [2] is 8.7 nM; in experiment [3], > 10000 nM. In experiment [4], this compound showed an EC50 of 44 nM.

A word on the Ki: it is a dissociation constant, usually derived from enzyme kinetics or from competition with a known ligand. High values mean a looser hold on the target, low ones a stronger hold on the target. A word on the EC50: it is the midpoint of the concentration-response curve. Higher therefore signals a less potent agent.
